Source: patent publication US8802597B2, “Herbicidal pyrimidines” (E I du Pont de Nemours and Company, priority 2003, dated 2014)
Read-outs that look alike come from different tables or passages of the source.

Experiments:
Format in all cases: in vivo
[1] = test system: morningglory (Ipomoea coccinea); experiment: Test C pre/postemergence; conditions: for pest or weed control at 62 g/ha / pest or weed control at 125 g/ha / pest or weed control at 250 g/ha / pest or weed control at 500 g/ha / pest or weed control at 31 g/ha: Ipomoea
How it was run: (§1)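 Injury scored visually 12–14 days after application on 0–100 scale (100 = complete control), relative to controls. Compounds, formulated with surfactant in non-phytotoxic solvent, applied to soil at planting (pre) or to 1- to 4-leaf plants 2–18 cm tall (post) in greenhouse.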

[2] = test system: woolly cupgrass (Eriochloa villosa); experiment: Test C pre/postemergence; conditions: for pest or weed control at 62 g/ha / pest or weed control at 125 g/ha / pest or weed control at 250 g/ha / pest or weed control at 500 g/ha / pest or weed control at 31 g/ha: Eriochloa villosa
How it was run: as §1

[3] = test system: chickweed (Stellaria media); experiment: Test C postemergence; conditions: for pest or weed control at 62 g/ha / pest or weed control at 125 g/ha / pest or weed control at 250 g/ha / pest or weed control at 500 g/ha / pest or weed control at 31 g/ha: Stellaria media, post-emergence; for pest or weed control at 31 g/ha: read-out: Plant response rating (scale of 0 to 100), Chickweed; for Plant response rating, Chickweed: scale 0 to 100
Excerpt: Seeds or nutlets of plant species selected from bermudagrass (Cynodon dactylon), Surinam grass (Brachiaria decumbens), cocklebur (Xanthium strumarium), corn (Zea mays), crabgrass (Digitaria sanguinalis), woolly cupgrass (Eriochloa villosa), giant foxtail (Setaria faberii), goosegrass (Eleusine indica), johnsongrass (Sorghum halepense), kochia (Kochia scoparia), lambsquarters (Chenopodium album), morningglory (Ipomoea coccinea), eastern black nightshade (Solanum ptycanthum), yellow nutsedge (Cyperus esculentus), pigweed (Amaranthus retroflexus), common ragweed (Ambrosia elatior), soybean (Glycine max), common (oilseed) sunflower (Helianthus annuus), and velvetleaf (Abutilon theophrasti) were planted and treated preemergence with test chemicals formulated in a non-phytotoxic solvent mixture which included a surfactant.
At the same time, plants selected from these crop and weed species and also winter barley (Hordeum vulgare), blackgrass (Alopecurus myosuroides), canarygrass (Phalaris minor), chickweed (Stellaria media), downy brome (Bromus tectorum), green foxtail (Setaria viridis), Italian ryegrass (Lolium multiflorum), wheat (Triticum aestivum), wild oat (Avena fatua) and windgrass (Apera spica-venti) were treated with postemergence applications of some of the test chemicals formulated in the same manner. Plants ranged in height from 2 to 18 cm (1- to 4-leaf stage) for postemergence treatments. Plant species in the flooded paddy test consisted of rice (Oryza sativa), umbrella sedge (Cyperus difformis), duck salad (Heteranthera limosa) and barnyardgrass (Echinochloa crus-galli) grown to the 2-leaf stage for testing. Treated plants and controls were maintained in a greenhouse for 12 to 14 days, after which time all species were compared to controls and visually evaluated. Plant response ratings, summarized in Table C, are based on a scale of 0 to 100 where 0 is no effect and 100 is complete control. A dash (-) response means no test result.

[4] = post-emergence, Postemergence, 62 g ai/ha, scale 0 to 100 (0 no effect, 100 complete control), read-out: Morningglory plant response rating
[5] = post-emergence, Postemergence, 125 g ai/ha, scale 0 to 100 (0 no effect, 100 complete control), read-out: Morningglory plant response rating
[6] = post-emergence, Postemergence, 250 g ai/ha, scale 0 to 100, read-out: Plant response rating, Morningglory
[7] = post-emergence, Postemergence, 500 g ai/ha, scale 0 to 100, read-out: Plant response rating, Morningglory
[8] = pre-emergence, Preemergence, 62 g ai/ha, scale 0 to 100, 0 no effect, 100 complete control, read-out: Plant response rating, Morningglory
[9] = pre-emergence, Preemergence, 125 g ai/ha, scale 0 to 100, read-out: Plant response rating, Morningglory
[10] = pre-emergence, Preemergence, 250 g ai/ha, scale 0 to 100, read-out: Plant response rating, Morningglory
[11] = post-emergence, Postemergence, 62 g ai/ha, scale 0 to 100 (0 no effect, 100 complete control), read-out: Cupgrass, Woolly plant response rating
[12] = post-emergence, Postemergence, 125 g ai/ha, scale 0 to 100 (0 no effect, 100 complete control), read-out: Cupgrass, Woolly plant response rating
[13] = post-emergence, Postemergence, 250 g ai/ha, scale 0 to 100, read-out: Plant response rating, Cupgrass, Woolly
[14] = post-emergence, Postemergence, 500 g ai/ha, scale 0 to 100, read-out: Plant response rating, Cupgrass, Woolly
[15] = pre-emergence, Preemergence, 62 g ai/ha, scale 0 to 100, 0 no effect, 100 complete control, read-out: Plant response rating, Cupgrass, Woolly
[16] = pre-emergence, Preemergence, 125 g ai/ha, scale 0 to 100, read-out: Plant response rating, Cupgrass, Woolly
[17] = pre-emergence, Preemergence, 250 g ai/ha, scale 0 to 100, read-out: Plant response rating, Cupgrass, Woolly
[18] = 62 g ai/ha, scale 0 to 100 (0 no effect, 100 complete control), read-out: Chickweed plant response rating
[19] = 125 g ai/ha, scale 0 to 100, read-out: Plant response rating, Chickweed
[20] = 250 g ai/ha, scale 0 to 100, read-out: Plant response rating, Chickweed
[21] = 500 g ai/ha, scale 0 to 100, read-out: Plant response rating, Chickweed
[22] = Postemergence, 125 g ai/ha, scale 0 to 100 (0 no effect, 100 complete control)
[23] = 125 g ai/ha, scale 0 to 100 (0 no effect, 100 complete control)
[24] = post-emergence, Postemergence, 31 g ai/ha, read-out: Plant response rating (scale of 0 to 100), Morningglory
[25] = post-emergence, Postemergence, 31 g ai/ha, read-out: Plant response rating (scale of 0 to 100), Cupgrass, Woolly
[26] = Postemergence, 62 g ai/ha, scale 0 to 100 (0 no effect, 100 complete control)
[27] = Preemergence, 16 g ai/ha, scale 0 to 100, 0 no effect, 100 complete control
[28] = Preemergence, 31 g ai/ha, scale 0 to 100, 0 no effect, 100 complete control
[29] = Preemergence, 62 g ai/ha, scale 0 to 100, 0 no effect, 100 complete control
[30] = Preemergence, 125 g ai/ha, scale 0 to 100
[31] = 62 g ai/ha, scale 0 to 100 (0 no effect, 100 complete control)
[32] = Postemergence, 250 g ai/ha, scale 0 to 100
[33] = Postemergence, 500 g ai/ha, scale 0 to 100

Compound | pest or weed control at 62 g/ha [1, 4] [%] | pest or weed control at 125 g/ha [1, 5] [%] | pest or weed control at 250 g/ha [1, 6] [%] | pest or weed control at 62 g/ha [2, 11] [%] | pest or weed control at 125 g/ha [2, 12] [%] | pest or weed control at 250 g/ha [2, 13] [%] | pest or weed control at 62 g/ha [3, 18] [%] | pest or weed control at 125 g/ha [3, 19] [%] | pest or weed control at 250 g/ha [3, 20] [%] | Plant response rating (scale of 0 to 100), Morningglory ([1]; Postemergence, 16 g ai/ha) | Plant response rating (scale of 0 to 100), Morningglory ([1]; Postemergence, 31 g ai/ha) | Morningglory plant response rating [1, 22] | Plant response rating (scale of 0 to 100), Cupgrass, Woolly ([2]; Postemergence, 16 g ai/ha) | Plant response rating (scale of 0 to 100), Cupgrass, Woolly ([2]; Postemergence, 31 g ai/ha) | Cupgrass, Woolly plant response rating [2, 22] | Plant response rating (scale of 0 to 100), Chickweed ([3]; 16 g ai/ha) | Plant response rating (scale of 0 to 100), Chickweed ([3]; 31 g ai/ha) | Chickweed plant response rating [3, 23] | further results
Nc1nc(C2CC2)nc(C(=O)O)c1Br [Compound 8] | 95 | 95 | 100 | 30 | 60 | 75 | 20 | 75 | 95 | – | – | – | – | – | – | – | – | – | pest or weed control at 500 g/ha [1, 7]: 100%; pest or weed control at 62 g/ha [1, 8]: 20%; pest or weed control at 125 g/ha [1, 9]: 100%; pest or weed control at 250 g/ha [1, 10]: 100%; pest or weed control at 500 g/ha ([1]; pre-emergence, Preemergence, 500 g ai/ha, scale 0 to 100, read-out: Plant response rating, Morningglory): 100%; pest or weed control at 500 g/ha [2, 14]: 85%; pest or weed control at 62 g/ha [2, 15]: 0%; pest or weed control at 125 g/ha [2, 16]: 65%; pest or weed control at 250 g/ha [2, 17]: 100%; pest or weed control at 500 g/ha ([2]; pre-emergence, Preemergence, 500 g ai/ha, scale 0 to 100, read-out: Plant response rating, Cupgrass, Woolly): 100%; pest or weed control at 500 g/ha [3, 21]: 100%
COC(=O)c1nc(C2CC2)nc(N)c1I [Compound 7] | – | 50 | 55 | 0 | 0 | 0 | 0 | 0 | 0 | – | – | – | – | – | – | – | – | – | pest or weed control at 500 g/ha [1, 7]: 65%; pest or weed control at 500 g/ha [2, 14]: 20%; pest or weed control at 500 g/ha [3, 21]: 0%
Nc1nc(-c2ccc(Br)cc2)nc(C(=O)O)c1Br [Compound 136] | – | – | – | – | – | – | – | – | – | 65 | 85 | 100 | 55 | 65 | 70 | 45 | 50 | 50 | Plant response rating (scale of 0 to 100), Morningglory ([1]; Postemergence, 62 g ai/ha): 90; Plant response rating (scale of 0 to 100), Cupgrass, Woolly ([2]; Postemergence, 62 g ai/ha): 70; Plant response rating (scale of 0 to 100), Chickweed ([3]; 62 g ai/ha): 50
COC(=O)c1nc(C2CC2)nc(N)c1Cl [Compound 9, methyl 6-amino-5-chloro-2-cyclopropyl-4-pyrimidinecarboxylate] | 95 | 100 | 100 | 60 | 70 | 85 | 85 | 100 | 100 | – | – | – | – | – | – | – | – | – | pest or weed control at 31 g/ha [1, 24]: 90%; pest or weed control at 31 g/ha ([1]; pre-emergence, Preemergence, 31 g ai/ha, scale 0 to 100, 0 no effect, 100 complete control, read-out: Plant response rating, Morningglory): 100%; pest or weed control at 62 g/ha [1, 8]: 100%; pest or weed control at 125 g/ha [1, 9]: 100%; pest or weed control at 250 g/ha [1, 10]: 100%; pest or weed control at 31 g/ha [2, 25]: 40%; pest or weed control at 31 g/ha ([2]; pre-emergence, Preemergence, 31 g ai/ha, scale 0 to 100, 0 no effect, 100 complete control, read-out: Plant response rating, Cupgrass, Woolly): 0%; pest or weed control at 62 g/ha [2, 15]: 90%; pest or weed control at 125 g/ha [2, 16]: 95%; pest or weed control at 250 g/ha [2, 17]: 100%; pest or weed control at 31 g/ha ([3]; 31 g ai/ha): 15%
COCc1nc(C2CC2)nc(N)c1Br [Compound 11] | – | – | – | – | – | – | – | – | – | 0 | 0 | 0 | 0 | 0 | 0 | 0 | 0 | – | Morningglory plant response rating [1, 26]: 0; Plant response rating, Morningglory [1, 27]: 0; Plant response rating, Morningglory [1, 28]: 0; Plant response rating, Morningglory [1, 29]: 0; Plant response rating, Morningglory [1, 30]: 0; Cupgrass, Woolly plant response rating [2, 26]: 0; Plant response rating, Cupgrass, Woolly [2, 27]: 0; Plant response rating, Cupgrass, Woolly [2, 28]: 0; Plant response rating, Cupgrass, Woolly [2, 29]: 0; Plant response rating, Cupgrass, Woolly [2, 30]: 0; Chickweed plant response rating [3, 31]: 0; Plant response rating, Chickweed ([3]; 125 g ai/ha): 0
CC(=O)NN=Cc1nc(C2CC2)nc(N)c1Br [Compound 51] | – | – | – | – | – | – | – | – | – | – | – | 80 | – | – | 0 | – | – | 0 | Morningglory plant response rating [1, 26]: 80; Plant response rating, Morningglory [1, 32]: 85; Plant response rating, Morningglory [1, 33]: 100; Cupgrass, Woolly plant response rating [2, 26]: 0; Plant response rating, Cupgrass, Woolly [2, 32]: 0; Plant response rating, Cupgrass, Woolly [2, 33]: 0; Chickweed plant response rating [3, 31]: 0; Plant response rating, Chickweed ([3]; 250 g ai/ha): 0; Plant response rating, Chickweed ([3]; 500 g ai/ha): 45
COC(=O)c1nc(-c2ccc(Cl)cc2)nc(N)c1Br [Compound 83] | – | – | – | – | – | – | – | – | – | 70 | 85 | 90 | 15 | 15 | 60 | 0 | 0 | 30 | Plant response rating (scale of 0 to 100), Morningglory ([1]; Postemergence, 62 g ai/ha): 90; Plant response rating (scale of 0 to 100), Cupgrass, Woolly ([2]; Postemergence, 62 g ai/ha): 45; Plant response rating (scale of 0 to 100), Chickweed ([3]; 62 g ai/ha): 10
CCOC(=O)c1nc(C2CC2)nc(NN)c1Br [Compound 42] | 50 | 80 | 85 | 0 | 0 | 5 | 0 | – | 10 | – | – | – | – | – | – | – | – | – | pest or weed control at 31 g/ha [1, 24]: 0%; pest or weed control at 31 g/ha [2, 25]: 0%; pest or weed control at 31 g/ha ([3]; 31 g ai/ha): 0%; pest or weed control at 125 g/ha ([3]; 125 g ai/ha, scale 0 to 100 (0 no effect, 100 complete control), read-out: Chickweed plant response rating): 0%
